Source: patent US9499790B2, “Method for promoting differentiation of pluripotent stem cells into cardiac muscle cells” (Kyoto University, priority 2010, dated 2016)

Assays:
Type in all cases: cell-based
[1] = tested on: mouse ES cells (R1); test: Number of beating colonies of cardiac muscle cells; settings: KY02111 5 μM during day 6 to 9, analyzed at day 9
Experimental: (§1) The effect of promoting differentiation of each of the ES/iPS cells into cardiac muscle cells were confirmed for N11474 and KY02111 with the GFP expression level and number of beating colonies used as the indicators. Human ES cell line (Kh-1 line) (Suemori, H., et al., Efficient establishment of human embryonic stem cell lines and long-term maintenance with stable karyotype by enzymatic bulk passage. Biochem Biophys Res Commun. 345(3), 926-32 (2006)) (incorporated herein by reference) was seeded in a 6-well plate (Asahi Glass/5816-006: Ezview culture plate) in 1.2×10^6 cells/well and cultured for 22 days, with BMP4 (10 ng/ml) added during day 0 to 4 of culture and N11474 (10 μM) or KY02111 (5 μM) added during day 4 to 14 of culture. Human iPS cell lines (253G1, IMR90-1, IMR90-4 and RCHIPC0003) (Takahashi, K., et al., Induction of pluripotent stem cells from adult human fibroblasts by defined factors. Cell. 131(5), 861-72 (2007); Yu, J., et al., Induced pluripotent stem cell lines derived from human somatic cells. Science. 318(5858), 1917-20 (2007)) (these references are herein incorporated by reference) were cultured for the cardiac muscle cell differentiation in the same manner as for the human ES cells. The cardiac muscle cells from mouse ES cells (R1) were differentiated in accordance with the method described in the reference (Transient inhibition of BMP signaling by Noggin induces cardiomyocyte differentiation of mouse embryonic stem cells. Yuasa S, et al. Nat. Biotechnol. 2005 May; 23(5): 607-11; incorporated herein by reference). KY02111 (5 μM) was added for 3 days during day 6 to 9 of cardiac muscle cell differentiation culture and the beating colonies of cardiac muscle cells were analyzed at day 9. Monkey ES cells (CMK6.4) were cultured for cardiac muscle cell differentiation in the same manner as in the above (2).

[2] = tested on: Human iPS (253G1); test: Number of beating colonies of cardiac muscle cells; settings: KY02111 5 μM during day 4 to 14
Experimental: as §1

[3] = tested on: Human iPS (RCHIPC0003); test: Number of beating colonies of cardiac muscle cells; settings: KY02111 5 μM during day 4 to 14
Experimental: as §1

[4] = tested on: Monkey ES cells (CMK6.4); test: Number of beating colonies of cardiac muscle cells; settings: Monkey ES (CMK6.4)
Experimental: as §1

[5] = tested on: Wnt signaling target genes in human iPS cells; test: Gene expression analysis by DNA array and quantitative polymerase chain reaction; set-up: expressions of genes by DNA array (HOXA1, MSGN1, NKD1, T, TNFRSF11B, DKK1, DKK4, CDX2, MSX1, NODAL, FGF4 and others): dose or concentration left out as unconfirmed
Experimental: (in the order of the genes whose expression were reduced most 12 hours later) HOXA1, MSGN1, NKD1, T, TNFRSF11B, DKK1, DKK4, CDX2, MSX1, NODAL, FGF4, PAPPA, PRRX1, LRAT, CYP1B1, SLC34A2, AXIN2, LGL1, SPS, MIXL1, APCDD1 and DSEL. […] The analyzed genes were as follows: MSGN1, HOXA1; T, MIXL1; Dkk1, AXIN2; NODAL and FGF4 (all known as Wnt signaling target genes).

[6] = tested on: Monkey ES cells; test: Cardiac muscle cell differentiation of monkey ES cells, 6-well plate, GFP expression observed at day 14
Source text: In the same manner as Example 2, the effects of promoting cardiac muscle cell differentiation were compared among KY02111 and N11474, known Wnt signaling inhibitors (IWP2, XAV939 and IWR1), proteins known to be effective in promoting cardiac muscle cell differentiation (G-CSF, IGFBP4, Dkk1 and cytokines (a mixture of bFGF, BMP4, VEGF, DKK1 and Activin A)).
The effect of BIO, a Wnt signaling activator, on the effect of promoting cardiac muscle cell differentiation of KY02111, XAV939 and IWP2 was analyzed. […]

[7] = tested on: Human iPS (IMR90-1); test: Number of beating colonies of cardiac muscle cells; settings: KY02111 5 μM during day 4 to 14
Experimental: The effect of promoting differentiation of each of the ES/iPS cells into cardiac muscle cells were confirmed for N11474 and KY02111 with the GFP expression level and number of beating colonies used as the indicators. Human ES cell line (Kh-1 line) (Suemori, H., et al., Efficient establishment of human embryonic stem cell lines and long-term maintenance with stable karyotype by enzymatic bulk passage. Biochem Biophys Res Commun. 345(3), 926-32 (2006)) (incorporated herein by reference) was seeded in a 6-well plate (Asahi Glass/5816-006: Ezview culture plate) in 1.2×10^6 cells/well and cultured for 22 days, with BMP4 (10 ng/ml) added during day 0 to 4 of culture and N11474 (10 μM) or KY02111 (5 μM) added during day 4 to 14 of culture. […] KY02111 (5 μM) was added for 3 days during day 6 to 9 of cardiac muscle cell differentiation culture and the beating colonies of cardiac muscle cells were analyzed at day 9. […] The effect of BIO, a Wnt signaling activator, on the effect of promoting cardiac muscle cell differentiation of KY02111, XAV939 and IWP2 was analyzed. […] The synergistic effects between KY02111 and a known Wnt signaling inhibitor XAV939 or IWP2 in the promotion of cardiac muscle cell differentiation were analyzed.

[8] = KY02111 5 μM during day 4 to 8, singly

## COc1ccc(CCC(=O)Nc2nc3ccc(Cl)cc3s2)cc1OC [KY02111, 2-(3-(3,4-dimethoxyphenyl)propanamide)-6-chlorobenzothiazole]
[1]
  Beating cardiac muscle cell differentiation efficiency (Control (DMSO) = 100%): 200% (KY02111)
[2]
  Beating cardiac muscle cell differentiation efficiency (Control (DMSO) = 100%): 1500% (KY02111)
[3]
  Beating cardiac muscle cell differentiation efficiency (Control (DMSO) = 100%): 100% (KY02111)
[4]
  Beating cardiac muscle cell differentiation efficiency (Control (DMSO) = 100%): 1850% (KY02111)
[5]; 12 hours and 24 hours after the addition
  expressions of genes by DNA array (HOXA1, MSGN1, NKD1, T, TNFRSF11B, DKK1, DKK4, CDX2, MSX1, NODAL, FGF4 and others): reduced
[5]; FIG. 9
  expressions of MSGN1, HOXA1, T, MIXL1, Dkk1, AXIN2, NODAL and FGF4 (Wnt signaling target genes) by qPCR: reduced
[5]; confirmation of DNA array, FIG. 8
  expression of MSGN1, HOXA1, T, Dkk1 and FGF4 by qPCR: same results as the DNA array analysis
[6]; 10 μM during day 4 to 10, GFP at day 14
  increase in the GFP expression level: 7400%
[6]; 10 μM during day 4 to 10, GFP at day 14, FIG. 10
  effect of promoting cardiac muscle cell differentiation (GFP expression), comparison with Wnt signaling inhibitors and proteins: strongest effect of promoting cardiac muscle cell differentiation
[6]; BIO 5 μM added together with the compound during day 4 to 10, GFP at day 14
  effect of BIO on the compound's effect of cardiac muscle cell differentiation (GFP expression): did not inhibit
[6]; [8]
  increase in the GFP expression level versus Control (DMSO): about 30 times
  proportion of beating colonies: about 30%
  ratio of number of GFP colonies: ~73%
[7]
  Beating cardiac muscle cell differentiation efficiency (Control (DMSO) = 100%): 6100% (KY02111)
